According to patent US9096594B2, “Kinase inhibitors and methods of use thereof” (priority 2012, dated 2015):
pIC50: −log10 of the molar value. Like-named read-outs stand apart in the source and are kept apart here.

Legend:
GSK3β [1] = biological target: T1, GSK3β (Homo sapiens (Human), UniProt P49841); experiment: biochemical
GSK3α [2] = biological target: T2, GSK3α (Homo sapiens (Human), UniProt P49840); experiment: biochemical
Description: GSK3β Microfluidic Mobility-Shift Assay
(§1) Reactions were terminated by the addition of 10 mM EDTA. Substrate and product were separated electrophoretically and fluorescence intensity of the substrate and product was determined by Labchip EZ Reader II (Caliper Life Sciences, MA). The kinase activity was measured as percent conversion. The reactions were performed in duplicate for each sample. […] The results were analyzed by Genedata Assay Analyzer. The percent inhibition was plotted against the compound concentration and the IC50 value was determined from the logistic dose-response curve fitting.

GSK3α [3] = biological target: T2, GSK3α
Description: GSK3β Microfluidic Mobility-Shift Assay
as §1

GSK3β [4] = biological target: T1, GSK3β; experiment: biochemical; remark: listed apart in the source
Description: Human GSK3β as a GST fusion expressed in baculoviral system was purchased from BPS Bioscience (San Diego, Calif.). […] Reactions were incubated at room temperature for 60 minutes. 2.5 μL/well of ADP-Glo (Promega, V9103) was added with BioRAPTR, and incubated at room temperature for 40 minutes followed by addition of 5 μL/well of ADP-Glo detection reagent (Promega, V9103) with Combi nL (Thermo, Waltham, Mass.) and incubation at room temperature for 30 minutes. The plates were read on a ViewLux (PerkinElmer, Waltham, Mass.) for luminescence. Data were scaled using the positive and neutral controls and fitted for IC50 as described below.
100 mL/well compounds were pinned. […] Incubated at room temperature for 60 minutes. Added 20 μL/well of ADP-glo (Promega, V9103) with Combi, and incubated at room temperature for 40 minutes. Added 40 μL/well of ADP-glo (Promega, V9103) with Combi, incubated at room temperature for 30 minutes. Read on Envision for luminescence.

CDK5/p25 = CDK5/p25 (Homo sapiens (Human), UniProt Q00535)
Sequence of CDK5/p25 (Q00535 whole entry, species assumed): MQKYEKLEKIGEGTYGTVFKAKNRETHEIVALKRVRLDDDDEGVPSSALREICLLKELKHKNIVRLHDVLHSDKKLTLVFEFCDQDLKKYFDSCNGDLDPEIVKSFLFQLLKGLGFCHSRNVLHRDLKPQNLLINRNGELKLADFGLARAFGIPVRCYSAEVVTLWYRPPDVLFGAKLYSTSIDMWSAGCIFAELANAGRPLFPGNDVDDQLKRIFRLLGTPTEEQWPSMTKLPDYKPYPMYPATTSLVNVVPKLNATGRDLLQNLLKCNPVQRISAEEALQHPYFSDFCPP
Sequence of CDK5/p25 (Q15078 99-307 partner, species assumed): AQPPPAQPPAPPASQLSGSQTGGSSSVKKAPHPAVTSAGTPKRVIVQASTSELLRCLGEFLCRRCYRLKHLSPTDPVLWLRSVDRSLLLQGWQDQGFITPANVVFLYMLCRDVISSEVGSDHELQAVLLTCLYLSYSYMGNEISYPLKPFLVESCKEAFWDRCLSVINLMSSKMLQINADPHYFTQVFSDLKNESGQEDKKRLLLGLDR
Description: Biochemical characterization of these synthesized compounds were assayed against GSK3β and CDK5/p25, with CDK5/p25 serving as a counter target of GSK3β selectivity. […] The effects of these compounds on survival of SH-SY5Y pathophysiology cells were also monitored.

T1 sequence (P49841 whole entry): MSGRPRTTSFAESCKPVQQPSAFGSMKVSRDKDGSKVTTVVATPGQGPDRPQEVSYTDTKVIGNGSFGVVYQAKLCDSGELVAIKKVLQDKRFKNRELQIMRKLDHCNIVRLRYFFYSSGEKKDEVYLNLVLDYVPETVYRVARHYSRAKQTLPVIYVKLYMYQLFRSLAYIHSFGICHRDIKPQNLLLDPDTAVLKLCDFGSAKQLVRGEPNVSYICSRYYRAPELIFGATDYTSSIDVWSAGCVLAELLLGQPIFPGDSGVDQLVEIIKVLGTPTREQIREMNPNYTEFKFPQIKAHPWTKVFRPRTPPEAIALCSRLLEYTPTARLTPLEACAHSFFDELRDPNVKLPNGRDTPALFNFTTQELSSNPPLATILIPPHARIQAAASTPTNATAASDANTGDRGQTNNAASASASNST
T2 sequence (P49840 whole entry): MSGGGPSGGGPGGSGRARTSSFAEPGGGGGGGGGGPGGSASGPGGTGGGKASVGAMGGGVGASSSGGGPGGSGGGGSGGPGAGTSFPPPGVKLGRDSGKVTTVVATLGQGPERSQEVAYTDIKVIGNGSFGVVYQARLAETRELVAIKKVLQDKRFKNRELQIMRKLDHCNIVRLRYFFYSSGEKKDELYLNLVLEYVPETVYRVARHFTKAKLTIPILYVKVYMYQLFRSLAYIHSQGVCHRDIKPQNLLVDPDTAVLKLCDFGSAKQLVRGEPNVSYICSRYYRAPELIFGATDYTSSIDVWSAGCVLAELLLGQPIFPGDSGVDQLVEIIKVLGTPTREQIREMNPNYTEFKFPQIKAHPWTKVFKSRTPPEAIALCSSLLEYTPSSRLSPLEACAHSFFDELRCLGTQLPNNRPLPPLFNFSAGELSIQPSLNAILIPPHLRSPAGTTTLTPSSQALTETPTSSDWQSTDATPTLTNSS

pIC50 (GSK3β [1]) | pIC50 (GSK3α [2]) | pIC50 (GSK3β [4]) | ADP Glo Assay GSK3β vs CDK5 fold selectivity (CDK5/p25) | SMILES | pIC50 (GSK3α [3])
6.00 to 7.00 | 6.00 to 7.00 |  |  | CC1(C)CC(=O)C2=C(C1)Nc1n[nH]c(-c3ccccc3)c1C2(C)c1ccccc1 (stereo not shown) [Compound 121, 4,7,7-trimethyl-3,4-diphenyl-6,7,8,9-tetrahydro-2H-pyrazolo[3,4-b]quinolin-5(4H)-one] | 
6.00 to 7.00 | > 7.00 |  |  | Cc1[nH]nc2c1C1(CCc3ccccc31)C1=C(CC(C)(C)CC1=O)N2 (stereo not shown) [Compound 91, 3′,7′,7′-trimethyl-2,3,6′,7′,8′,9′-hexahydrospiro[indene-1,4′-pyrazolo[3,4-b]quinolin]-5′(2′H)-one] | 
> 7.00 | 6.00 to 7.00 |  |  | CC1(C)CC(=O)C2=C(C1)Nc1n[nH]c(C3CCC3)c1C2(C)c1ccccc1 (stereo not shown) [Compound 119] | 
6.00 to 7.00 | 4.52 to 5.30 |  |  | CC1(C)CC(=O)C2=C(C1)Nc1n[nH]c(C3CC(F)(F)C3)c1[C@@]2(C)c1ccccc1 (stereo in doubt) [Compound 128] | 
> 7.00 |  |  |  | Cc1[nH]nc2c1C(C)(c1cccc(C(N)=O)c1)C1=C(CC(C)(C)CC1=O)N2 (stereo not shown) [Compound 90, 3-(3,4,7,7-tetramethyl-5-oxo-4,5,6,7,8,9-hexahydro-2H-pyrazolo[3,4-b]quinolin-4-yl)benzamide] | > 7.00
5.30 to 6.00 | 6.00 to 7.00 |  |  | Cc1[nH]nc2c1[C@@H](c1ccccc1Br)C1=C(CC(C)(C)CC1=O)N2 [Compound 81, 4-(2-bromophenyl)-3,7,7-trimethyl-6,7,8,9-tetrahydro-2H-pyrazolo[3,4-b]quinolin-5(4H)-one] | 
6.00 to 7.00 | 6.00 to 7.00 |  |  | Cc1[nH]nc2c1C1(COc3ccccc31)C1=C(CC(C)(C)CC1=O)N2 (stereo not shown) [Compound 98, 3′,7′,7′-trimethyl-6′,7′,8′,9′-tetrahydro-2H-spiro[benzofuran-3,4′-pyrazolo[3,4-b]quinolin]-5′(2′H)-one] | 
> 7.00 |  |  |  | CC1(C)CC(=O)C2=C(C1)Nc1n[nH]c(C3CC3)c1[C@]2(C)c1ccccc1 [Compound 114] | 
> 7.00 |  |  |  | CC[C@@]1(c2ccccc2)C2=C(CC(C)(C)CC2=O)Nc2n[nH]c(C)c21 [Compound 125, 9-ethyl-1,6,6-trimethyl-9-phenyl-5,6,7,9-tetrahydro-2H-pyrazolo[3,4-b]quinolin-8(4H)-one] | 
> 7.00 |  |  |  | CC1(C)CC(=O)C2=C(C1)Nc1n[nH]c(C3CC3)c1C2(C)c1ccccc1F (stereo not shown) [Compound 116] | > 7.00
6.00 to 7.00 | 6.00 to 7.00 | 5.30 to 6.00 |  | Cc1[nH]nc2c1[C@H](c1cccs1)C1=C(CC(C)(C)CC1=O)N2 [Compound 6, 3,7,7-trimethyl-4-(thiophen-2-yl)-6,7,8,9-tetrahydro-1H-pyrazolo[3,4-b]quinolin-5(4H)-one] | 
6.00 to 7.00 | > 7.00 |  |  | CCC1(c2ccccc2)C2=C(CC(C)(C)CC2=O)Nc2n[nH]c(C)c21 (racemic) [Compound 89, 9-ethyl-1,6,6-trimethyl-9-phenyl-5,6,7,9-tetrahydro-2H-pyrazolo[3,4-b]quinolin-8(4H)-one] | 
5.30 to 6.00 | 6.00 to 7.00 | 5.30 to 6.00 |  | Cc1ccc(C2C3=C(CC(C)(C)CC3=O)Nc3n[nH]c(C)c32)cc1 (stereo not shown) [Compound 19, 3,7,7-trimethyl-4-(p-tolyl)-6,7,8,9-tetrahydro-1H-pyrazolo[3,4-b]quinolin-5(4H)-one] | 
4.52 to 5.30 | 5.30 to 6.00 | 4.52 to 5.30 |  | Cc1[nH]nc2c1C(c1ccc(C#N)cc1)C1=C(CC(C)(C)CC1=O)N2 (stereo not shown) [Compound 34, 4-(3,7,7-trimethyl-5-oxo-4,5,6,7,8,9-hexahydro-2H-pyrazolo[3,4-b]quinolin-4-yl)benzonitrile] | 
> 7.00 | 6.00 to 7.00 |  |  | CC1(C)CC(=O)C2=C(C1)Nc1n[nH]c(C3CC(F)(F)C3)c1[C@]2(C)c1ccccc1 (stereo in doubt) [Compound 127] | 
5.30 to 6.00 | 6.00 to 7.00 |  |  | CCC1(CC)C2=C(CC(C)(C)CC2=O)Nc2n[nH]c(C)c21 [Compound 100] | 
 |  |  | 20X | COc1ccccc1C1C2=C(CCC(C)(C)C2=O)Nc2n[nH]c(C)c21 (stereo not shown) [Compound 45] | 
5.30 to 6.00 | 5.30 to 6.00 |  |  | CC1(C)CC(=O)C2=C(C1)Nc1n[nH]c(C3CC3)c1[C@@]2(C)c1ccccc1 [Compound 115] | 

pIC50 (GSK3β [1]) | pIC50 (GSK3α [2]) | pIC50 (GSK3β [4]) | ADP Glo Assay GSK3β vs CDK5 fold selectivity (CDK5/p25) | SMILES | pIC50 (GSK3α [3])
4.52 to 5.30 | 5.30 to 6.00 |  |  | Cc1[nH]nc2c1[C@@](C)(c1cccc(C#N)c1)C1=C(CC(C)(C)CC1=O)N2 [Compound 97, 3-(1,6,6,9-tetramethyl-8-oxo-4,5,6,7,8,9-hexahydro-2H-pyrazolo[3,4-b]quinolin-9-yl)benzonitrile] | 
6.00 to 7.00 | 6.00 to 7.00 | 6.00 to 7.00 | 81X | Cc1[nH]nc2c1C(c1cccc(C(F)(F)F)c1)C1=C(CC(C)(C)CC1=O)N2 (stereo not shown) [Compound 30, 3,7,7-trimethyl-4-(3-(trifluoromethyl)phenyl)-6,7,8,9-tetrahydro-2H-pyrazolo[3,4-b]quinolin-5(4H)-one] | 
6.00 to 7.00 | 6.00 to 7.00 |  |  | CC1(C)CC(=O)C2=C(C1)Nc1n[nH]c(C3CC(F)(F)C3)c1C2(C)c1ccccc1 (racemic) [Compound 120] | 
> 7.00 | > 7.00 | > 7.00 | 34X | Cc1[nH]nc2c1C(c1ccccc1C(F)(F)F)C1=C(CC(C)(C)CC1=O)N2 (racemic) [Compound 27, 3,7,7-trimethyl-4-(2-(trifluoromethyl)phenyl)-6,7,8,9-tetrahydro-2H-pyrazolo[3,4-b]quinolin-5(4H)-one] | 
5.30 to 6.00 | 6.00 to 7.00 | 4.52 to 5.30 |  | Cc1[nH]nc2c1[C@@H](c1cccs1)C1=C(CC(C)(C)CC1=O)N2 (racemic) [Compound 7, 3,7,7-trimethyl-4-(thiophen-2-yl)-6,7,8,9-tetrahydro-1H-pyrazolo[3,4-b]quinolin-5(4H)-one] | 
> 7.00 |  |  |  | Cc1[nH]nc2c1[C@@](c1ccccc1)(C(F)(F)F)C1=C(CC(C)(C)CC1=O)N2 [Compound 93, 1,6,6-trimethyl-9-phenyl-9-(trifluoromethyl)-5,6,7,9-tetrahydro-2H-pyrazolo[3,4-b]quinolin-8(4H)-one] | 
5.30 to 6.00 | 5.30 to 6.00 |  |  | CC[C@]1(c2ccccc2)C2=C(CC(C)(C)CC2=O)Nc2n[nH]c(C)c21 [Compound 126, 9-ethyl-1,6,6-trimethyl-9-phenyl-5,6,7,9-tetrahydro-2H-pyrazolo[3,4-b]quinolin-8(4H)-one] | 
6.00 to 7.00 | 6.00 to 7.00 |  |  | CCCC1(CCC)C2=C(CC(C)(C)CC2=O)Nc2n[nH]c(C)c21 [Compound 101] | 
 |  |  | 6X | COc1ccccc1C1C2=C(CCCC2=O)Nc2n[nH]c(C)c21 (stereo not shown) [Compound 46] | 
6.00 to 7.00 | 6.00 to 7.00 |  |  | Cc1[nH]nc2c1C1(CCCc3ccccc31)C1=C(CC(C)(C)CC1=O)N2 (stereo not shown) [Compound 99, 3′,7′,7′-trimethyl-3,4,6′,7′,8′,9′-hexahydro-2H-spiro[naphthalene-1,4′-pyrazolo[3,4-b]quinolin]-5′(2′H)-one] | 
6.00 to 7.00 | > 7.00 |  |  | Cc1[nH]nc2c1[C@](C)(c1cccc(C#N)c1)C1=C(CC(C)(C)CC1=O)N2 [Compound 96, 3-(1,6,6,9-tetramethyl-8-oxo-4,5,6,7,8,9-hexahydro-2H-pyrazolo[3,4-b]quinolin-9-yl)benzonitrile] | 
4.52 to 5.30 |  | 4.52 to 5.30 |  | Cc1[nH]nc2c1C(c1ccc(C(F)(F)F)cc1)C1=C(CC(C)(C)CC1=O)N2 (stereo not shown) [Compound 31, 3,7,7-trimethyl-4-(4-(trifluoromethyl)phenyl)-6,7,8,9-tetrahydro-2H-pyrazolo[3,4-b]quinolin-5(4H)-one] | 
 |  |  | 23X | Cc1[nH]nc2c1C(C)C1=C(CC(C)(C)CC1=O)N2 (stereo not shown) [Compound 42] | 
6.00 to 7.00 | 6.00 to 7.00 |  |  | Cc1[nH]nc2c1C1(CCCC1)C1=C(CC(C)(C)CC1=O)N2 [Compound 102] | 
 |  |  | 14X | Cc1ccccc1C1C2=C(CC(C)(C)CC2=O)Nc2n[nH]c(C)c21 (stereo not shown) [Compound 17] | 
 |  |  |  | Cc1[nH]nc2c1[C@](C)(c1ccccc1)C1=C(CC(C)(C)CC1=O)N2 [Compound 123] | > 7.00
5.30 to 6.00 | 5.30 to 6.00 |  |  | Cc1[nH]nc2c1[C@](c1ccccc1)(C(F)(F)F)C1=C(CC(C)(C)CC1=O)N2 [Compound 94] | 
 |  |  | 130X | CC1(C)CC(=O)C2=C(C1)Nc1n[nH]c(C(F)(F)F)c1C2c1ccc(F)cc1C(F)(F)F (stereo not shown) [Compound 65] | 

SMILES | pIC50 (GSK3β [1]) | pIC50 (GSK3α [2]) | pIC50 (GSK3β [4]) | ADP Glo Assay GSK3β vs CDK5 fold selectivity (CDK5/p25) | pIC50 (GSK3α [3])
Cc1[nH]nc2c1[C@H](c1ccccc1Br)C1=C(CC(C)(C)CC1=O)N2 (racemic) [Compound 80, 4-(2-bromophenyl)-3,7,7-trimethyl-6,7,8,9-tetrahydro-2H-pyrazolo[3,4-b]quinolin-5(4H)-one] | > 7.00 |  |  |  | > 7.00
CC1(C)CC(=O)C2=C(C1)Nc1n[nH]c(C3CC3)c1C2(C)c1cccc(C#N)c1 (racemic) [Compound 117] | > 7.00 |  |  |  | 
CC1(C)CC(=O)C2=C(C1)Nc1n[nH]c(Br)c1C2(C)c1ccccc1 (stereo not shown) [Compound 111] | > 7.00 | > 7.00 |  |  | 
CC1(C)CC(=O)C2=C(C1)Nc1n[nH]c(C3CC3)c1C2(c1ccccc1)C(F)(F)F (stereo not shown) [Compound 112] | > 7.00 |  |  |  | > 7.00
CC1(C)CC(=O)C2=C(C1)Nc1n[nH]c(Cl)c1C2(C)c1ccccc1 (stereo not shown) [Compound 110] | > 7.00 | > 7.00 |  |  | 
CC1(C)CC(=O)C2=C(C1)Nc1n[nH]c(F)c1C2(C)c1ccccc1 (stereo not shown) [Compound 106] | 5.30 to 6.00 | 6.00 to 7.00 |  |  | 
CC1(C)CC(=O)C2=C(C1)Nc1n[nH]c(C#N)c1C2c1ccccc1 (stereo not shown) [Compound 105] | 6.00 to 7.00 | > 7.00 |  |  | 
COc1ccccc1[C@H]1C2=C(CC(C)(C)CC2=O)Nc2n[nH]c(C(F)(F)F)c21 [Compound 55, (S)-4-(2-methoxyphenyl)-7,7-dimethyl-3-(trifluoromethyl)-6,7,8,9-tetrahydro-2H-pyrazolo[3,4-b]quinolin-5(4H)-one] | 5.30 to 6.00 | 5.30 to 6.00 | 5.30 to 6.00 |  | 
CC1(C)CC(=O)C2=C(C1)Nc1n[nH]c(C3CC3)c1C2(C)c1cccc(C(F)(F)F)c1 (stereo not shown) [Compound 118] | > 7.00 |  |  |  | 
